By half-life is commonly meant how long it takes for the measured level to halve.

The text below walks through data of PMC11403612, “Preparation and Preclinical Characterization of a Simple Ester for Dual Exogenous Supply of Lactate and Beta-hydroxybutyrate” (Journal of Agricultural and Food Chemistry, 2024).

Series [1] can be described thus: Microsomal stability of LaKe, rat. The series is classed as in vitro ADME, SD Rat. The method, then: The in vitro stability of LaKe was evaluated following incubation in simulated gastric fluid (SGF), simulated intestinal fluid (SIF), fresh and frozen plasma (rats and humans, respectively), and the presence of hepatocytes (rats and humans) and liver microsomes (rats and humans). At the chosen time points, the mixtures were analyzed by LC-MS/MS to quantify the remaining LaKe and all assays included at least one control compound with known pharmacokinetic properties.
Hepatocyte stability of LaKe
Cells: Rat hepatocytes (BioreclamationIVT, M0005); Human hepatocytes (BioreclamationIVT, X008001) Thawing Medium: Williams’ Medium E containing 5% fetal bovine serum and 30% Percoll solution and other […]
Incubation Medium: Williams’ Medium E (no phenol red) containing 2 mM L-Glutamine and 25 mM HEPES.
Stop Solution: Acetonitrile containing 200 ng/mL tolbutamide and labetalol as internal standards.
Dilution Solution: Ultra-pure water.
Preparation of Quenching Plate: Transfer 125 μL of stop solution (acetonitrile containing 200 ng/mL tolbutamide and 200 ng/mL labetalol as internal standards) in a set of pre-labeled 96-well plates.
Cryopreserved cells were thawed, isolated and suspended in Incubation Medium, then diluted with pre-warmed Incubation Medium to 0.5 × 10^6 cells/mL. 198 μL of pre-warmed cell suspensions were added in 96-well plates. […]

Series [2] in a line: Stability of LaKe in plasma, rat. The series is classed as in vitro ADME. As to the method:
The in vitro stability of LaKe was evaluated following incubation in simulated gastric fluid (SGF), simulated intestinal fluid (SIF), fresh and frozen plasma (rats and humans, respectively), and the presence of hepatocytes (rats and humans) and liver microsomes (rats and humans). At the chosen time points, the mixtures were analyzed by LC-MS/MS to quantify the remaining LaKe and all assays included at least one control compound with known pharmacokinetic properties. […]
centrifuged at 4000 rpm, 4℃ for 20 min. 60 μL of supernatant was mixed with 180 μL of purified water for subsequent LC/MS/MS analysis.
LC-MS/MS Condition: ACQUITY UPLC BEH C18 1.7um 2.1 * 50mm Column (Part No.186002350). Mobile phase: A: 0.1% Formic Acid in Water; B: 0.1% Formic Acid in ACN. […]
Samples were incubated at 37 ℃, 600 rpm for the appointed time. At the chosen time points (60, 120, 360, 1440 minutes) samples were immediately mixed with 400 μL of cold acetonitrile containing 200 ng/mL tolbutamide and labetalol (internal standards). 200 μL of suspension was removed and mixed completely with 400 μL of cold acetonitrile containing 200 ng/mL tolbutamide and labetalol again. The T0 samples were prepared by transferring 198 μL of SIF solution to corresponding well after adding 400 μL of cold acetonitrile containing 200 ng/mL tolbutamide and then mixing completely. The samples were […]
Stability of LaKe in plasma […]

For the molecule `CC(O)CCOC(=O)C(C)O` (stereo not shown) [LaKe, 3-hydroxybutyl 2-hydroxypropanoate], the “turnover in liver microsomes” value in series [1] (presence of NADPH) was “underwent turnover”. The LaKe remaining in series [1] (rat liver microsomes, absence of NADPH, after 60 min) came to 55%. Besides, the “detection of LaKe at the first time point” value in series [2] (fresh plasma from rats, 10 min) is reported as “could not be detected”. Moreover, the half-life at 2 µM in series [2] (rat plasma (fresh)) was under 30 min.
